Structures are written as SMILES.

Assay [1] addresses T1, NRF2/Keap1 (Homo sapiens, UniProt Q14145).
T1 construct: full length NRF2 protein and full length Keap1 protein (Keap1 exists a dimer) are used
The experiment in a line: NRF2-Keap1 TR-FRET Assay (full length NRF2 and full length Keap1). The assay is classed as binding. The note with it: 25 nM Keap1-FlagHis, 50 nM biotin-NRF2 added. From the text:
In the NRF2-Keap1 TR-FRET (time-resolved fluorescence resonance energy transfer) assay, full length NRF2 protein and full length Keap1 protein (Keap1 exists a dimer) are used. The assay detects the ability of compound to displace the binding of FlagHis-tagged Keap1 with biotinylated, Avi-tagged NRF2 protein. Biotin-NRF2 binds to streptavidin-europium (a component of the detection mix) and Keap1-FlagHis is recognized by anti-Flag APC (allophycocyanin) antibody (also a component of the detection mix). If binding occurs between the two proteins, there will be an energy transfer from the Eu+3 (donor) at 615 nm to the APC (acceptor) at 665 nm. A potential Keap1 inhibitor will cause a reduction in the TR-FRET signal by interfering with the binding of Keap1 to NRF2.
One hundred nanoliters of 100× compound dose response curves (serial 3-fold dilutions) in DMSO are stamped using an Echo liquid handling system (Labcyte) into 384-well, low volume, black assay plates (Greiner, #784076), with DMSO in columns 6 and 18. The top concentration of compound is located in columns 1 and 13. All reagents are diluted in assay buffer (50 mM Tris, pH 8.0, 5 mM MgCl2, 100 mM NaCl, 0.005% BSA, 1 mM DTT, and 2 mM CHAPS). The BSA, DTT, and CHAPS are added to the assay buffer on the day of assay. Using a Multidrop Combi (Thermo Electron Corporation) equipped with a metal tip dispenser, 5 ul of 25 nM Keap1-FlagHis protein is added to all wells of the compound plate, with the exception of the wells in column 18. Wells in column 18 receive 5 ul of assay buffer instead. Plates are centrifuged at 500 rpm for 1 minute, covered with a plate lid, and incubated at 37° C. for 2.25 hours. Plates are then removed from the incubator and allowed to cool to RT for 15 minutes. Five microliters of 50 nM biotin-NRF2 protein is then added to all wells of the plates and the plates are spun at 500 rpm for 1 minute, followed by incubating at 4° C. for 1.25 hours. The plates are then allowed to warm to RT for 15 minutes, followed by the addition of 10 ul of detection mix (1 nM Streptavidin Eu+ W1024 and 5 ug/ml mouse anti-DYKDDDDK IgG conjugated to SureLight APC antibody; both from Columbia Biosciences) to all wells. Plates are spun at 500 rpm for 1 minute, incubated for 1 hour at RT, and read on an Envision plate reader using a 320 nm excitation filter and 615 nm and 665 nm emission filters. Compound response (% inhibition) and potency (pIC50) are calculated based on the ratio of the two emissions (665 nm/615 nm) and then the transformed data is normalized against controls in the assay (control 1=1% DMSO in the presence of NRF2 and Keap1 protein and control 2=1% DMSO in the absence of protein). Data analysis is handled using the software package Abase XE (Surrey, United Kingdom). The % inhibition values are calculated from the ratio (transformed) data by the equation: 100−(100*(compound response-average control 2)/(average control 1−average control 2)).
For calculation of pIC50s, Abase XE uses a four parameter equation.
In general terms: Time-resolved FRET reads energy transfer from a long-lived donor to a nearby acceptor.

The subject of assay [2] is NQO1 specific enzyme activity in BEAS-2B cells. In words: BEAS-2B NQO1 MTT Assay. The assay is classed as cell-based. The conditions noted are these: Homo sapiens, BEAS-2B, 48 h, NQO1 specific activity induction. An excerpt:
NAD(P)H:quinone oxidoreductase 1 (NQO1), also called DT diaphorase, is a homodimeric FAD-containing enzyme that catalyzes obligatory NAD(P)H-dependent two-electron reductions of quinones and protects cells against the toxic and neoplastic effects of free radicals and reactive oxygen species arising from one-electron reductions. The transcription of NQO1 is finely regulated by NRF2, and thus NQO1 activity is a good marker for NRF2 activation. On day one, frozen BEAS-2B cells (ATCC) are thawed in a water bath, counted, and re-suspended at a concentration of 250,000 cells/mL. Fifty microliters of cells are plated in 384 well black clear-bottomed plates. Plates are incubated at 37° C., 5% CO2 overnight. On day two, plates are centrifuged and 50 nL of compound or controls are added to the cells. Plates are then incubated at 37° C., 5% CO2 for 48 hours. On day four, medium is aspirated from the plate and crude cell lysates are made by adding 13 uL of 1× Cell Signaling Technologies lysis buffer with 1 Complete, Mini, EDTA-free Protease Inhibitor Tablet (Roche) for each 10 mL of lysis buffer. After lysis plates are incubated for 20 minutes at room temperature. Two microliters of lysate are removed for use in Cell Titer Glo assay (Promega) and MTT cocktail is prepared (Prochaska et. al. 1998) for measurement of NQO1 activity. Fifty microliters of MTT cocktail is added to each well, plate is centrifuged, and analyzed on an Envision plate reader (Perkin Elmer) using Absorbance 570 nm label for 30 minutes. Product formation is measured kinetically and the pEC50 of NQO1 specific activity induction is calculated by plotting the change in absorbance (Delta OD/min) versus the log of compound concentration followed by 3-parameter fitting.

For assay [3], the target named is T2, Keap1/NRF2 (Homo sapiens, UniProt Q14145).
T2 construct: Keap1 (321-609) is diluted to 40 nM (2×) in 1× assay buffer
The experiment in a line: NRF2-Keap1 FP Assay (Kelch domain (321-609) of Keap1, TAMRA-labeled NRF2 ETGE peptide). The assay is classed as binding. The note with it: Keap1 (321-609) 20 nM, Tamra labeled peptide 8 nM. An excerpt: One model for the NRF2-Keap1 interaction is through two binding sites in the Neh2 domain on NRF2. The two sites are referred to as the DLG binding motif (latch domain, uM affinity) and the ETGE binding motif (hinge domain, nM affinity). The Keap1 protein consists of an N-terminal region (NTR), a broad complex, tramtrack, and brick a′ brac domain (BTB), an intervening region (IVR), a double glycine repeat domain (DGR or Kelch), and a C-terminal region. The DLG and ETGE motifs of NRF2's Neh2 domain bind to the Kelch domain of Keap1 at different affinities. In the Keap1 Kelch fluorescence polarization (FP) assay, a TAMRA-labeled 16 mer peptide (AFFAQLQLDEETGEFL) containing the ETGE motif of NRF2 and the Kelch domain (321-609) of Keap1 is used. The assay determines if a compound interferes with the binding between Keap1 […] and the TAMRA-labeled peptide. Binding of TAMRA-labeled NRF2 peptide to Keap1 (321-609) results in a high FP signal. If a compound interferes with the binding between the peptide and the protein, it will cause the assay signal to decrease. Thus, assay signal is inversely proportional to binding inhibition.
100 nl of 100× compound dose response curves (serial 3-fold dilutions) in DMSO are stamped using an Echo liquid handling system (Labcyte) into 384-well low volume black assay plates (Greiner, #784076), with DMSO in columns 6 and 18. The top concentration of compound is located in columns 1 and 13. Keap1 (321-609) is diluted to 40 nM (2×) in 1× assay buffer (50 mM Tris, pH 8.0, 100 mM NaCl, 5 mM MgCl2, 1 mM DTT, 2 mM CHAPS, and 0.005% BSA) and 5 ul is added using a Multidrop Combi (Thermo Electron Corporation) equipped with a metal tip dispenser to all wells of the compound plate, except column 18. Column 18 receives only 5 ul of assay buffer. Immediately, 5 uL of 16 nM (2×) of Tamra labeled peptide (AFFAQLQLDEETGEFL, 21st Century Biochemicals) is added to all wells of the plate. The plates are spun at 500 rpm for 1 min, incubated for 1 hr at room temperature, and read on an Analyst GT (Molecular Devices) equipped with excitation (530/25 nm) and emission (580/10 nm) filters designed for Tamra probes. A 561 nm dichroic mirror is also used in the Analyst. The final assay concentrations of Keap1 (321-609) and Tamra labeled peptide are 20 nM and 8 nM, respectively. Fluorescence measurements, represented as mP, are used in the transformation of the data. Compound activity is calculated based on percent inhibition, normalized against controls in the assay (Control 1 contains the Tamra peptide and Keap1 (321-609) together (0% response) and control 2 contains the Tamra peptide alone (100% response)). Data analysis is handled using the software package Abase XE (Surrey, United Kingdom. The % inhibition values are calculated by the equation: 100−(100*((compound response-average control 2)/(average control 1−average control 2))). For calculation of pIC50s, Abase XE uses a four parameter equation.

T2 sequence (Q14145 321-609): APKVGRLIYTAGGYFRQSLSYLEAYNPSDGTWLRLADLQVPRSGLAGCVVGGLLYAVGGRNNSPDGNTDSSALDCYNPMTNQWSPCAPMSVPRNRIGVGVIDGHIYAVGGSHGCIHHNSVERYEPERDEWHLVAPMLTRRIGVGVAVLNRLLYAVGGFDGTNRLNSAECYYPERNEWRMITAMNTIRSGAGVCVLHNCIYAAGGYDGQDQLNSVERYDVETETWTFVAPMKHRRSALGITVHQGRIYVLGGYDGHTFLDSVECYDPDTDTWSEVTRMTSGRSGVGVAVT
T1 sequence (Q14145 whole entry): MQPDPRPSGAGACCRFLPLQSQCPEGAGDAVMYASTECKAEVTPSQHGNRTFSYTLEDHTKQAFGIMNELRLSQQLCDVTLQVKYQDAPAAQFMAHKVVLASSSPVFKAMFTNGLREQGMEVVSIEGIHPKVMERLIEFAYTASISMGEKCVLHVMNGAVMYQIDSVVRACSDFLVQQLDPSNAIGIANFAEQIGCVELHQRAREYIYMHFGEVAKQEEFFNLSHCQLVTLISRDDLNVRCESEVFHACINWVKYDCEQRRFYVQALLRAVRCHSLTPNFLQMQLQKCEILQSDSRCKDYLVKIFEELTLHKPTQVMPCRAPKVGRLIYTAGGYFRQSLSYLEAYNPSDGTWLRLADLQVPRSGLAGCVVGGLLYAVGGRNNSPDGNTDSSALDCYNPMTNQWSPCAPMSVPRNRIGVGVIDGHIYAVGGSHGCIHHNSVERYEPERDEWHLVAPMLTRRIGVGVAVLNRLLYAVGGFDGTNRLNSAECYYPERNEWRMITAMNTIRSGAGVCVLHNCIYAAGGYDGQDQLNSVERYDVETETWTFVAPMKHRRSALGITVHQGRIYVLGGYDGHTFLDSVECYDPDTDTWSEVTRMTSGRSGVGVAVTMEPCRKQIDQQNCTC

For `O=C(O)c1cnn(-c2cccc(C3CCC(n4ncc5c4CCC5)C3)c2)c1C1CC1` (mixture of isomers) [Example 10, 1-[3-(3-{1H,4H,5H,6H-cyclopenta[c]pyrazol-1-yl}cyclopentyl)phenyl]-5-cyclopropyl-1H-pyrazole-4-carboxylic Acid], the IC50 in assay [1] was in the range of 10000 to 100000 nM; in assay [3] it was 100 to 1000 nM. The EC50 in assay [2] was in the range of 1000 to 10000 nM.
For `CN(C)C(=O)[C@H]1CCC[C@@H](c2cccc(-n3ncc(C(=O)O)c3C3CC3)c2)C1` (racemic) [Example 1, 5-Cyclopropyl-1-{3-[3-(dimethylcarbamoyl)cyclohexyl]phenyl}-1H-pyrazole-4-carboxylic Acid], the results for the IC50 in assay [1] and in assay [3] were 1000 to 10000 nM and 100 to 1000 nM, respectively. The same compound came in with an EC50 in assay [2] of 1000 to 10000 nM.
Consider `O=C(O)c1cnn(-c2cccc(C3CCCC(n4ncc5c4CCCC5)C3)c2)c1C1CC1` (racemic) [Example 2, 5-Cyclopropyl-1-{3-[3-(4,5,6,7-tetrahydro-1H-indazol-1-yl)cyclohexyl]phenyl}-1H-pyrazole-4-carboxylic Acid], for which the half-maximal inhibitory concentration (IC50) in assay [1] was in the range of 1000 to 10000 nM; in assay [3], 100 to 1000 nM. For the same compound, the EC50 in assay [2] is 1000 to 10000 nM.
On to `O=C(O)c1cnn(-c2cccc([C@H]3CCC[C@@H](C(=O)N4CCCCC4)C3)c2)c1C1CC1` (racemic) [Example 3, 5-Cyclopropyl-1-{3-[3-(piperidine-1-carbonyl)cyclohexyl]phenyl}-1H-pyrazole-4-carboxylic Acid], for which the IC50 in assay [1] was in the range of 1000 to 10000 nM; in assay [3] it was 100 to 1000 nM. Also, the EC50 in assay [2] lay within 1000 to 10000 nM.
`O=C(O)c1cnn(-c2cccc([C@@H]3CCC[C@H](C(=O)N4CCCC5(CCCC5)C4)C3)c2)c1C1CC1` (racemic) [Example 4, 1-[3-(3-{7-Azaspiro[4.5]decane-7-carbonyl}cyclohexyl)phenyl]-5-cyclopropyl-1H-pyrazole-4-carboxylic Acid]: the IC50 was 1000 to 10000 nM in assay [1] and 100 to 1000 nM in assay [3]. Moreover, the EC50 in assay [2] was 1000 to 10000 nM.
For the compound `CCCC1CCCCN1C(=O)[C@H]1CCC[C@@H](c2cccc(-n3ncc(C(=O)O)c3C3CC3)c2)C1` (mixture of isomers) [Example 5, 5-Cyclopropyl-1-{3-[3-(2-propylpiperidine-1-carbonyl)cyclohexyl]phenyl}-1H-pyrazole-4-carboxylic Acid], the IC50 in assay [1] fell in the range of 1000 to 10000 nM; in assay [3] it was 100 to 1000 nM. The EC50 in assay [2] is 1000 to 10000 nM.
In the case of `CC1(C)CCCN1C(=O)C1CCCC(c2cccc(-n3ncc(C(=O)O)c3C3CC3)c2)C1` (racemic) [Example 6, 5-cyclopropyl-1-{3-[3-(2,2-dimethylpyrrolidine-1-carbonyl)cyclohexyl]phenyl}-1H-pyrazole-4-carboxylic Acid], the IC50 in assay [1] lay within 1000 to 10000 nM; in assay [3] it was 100 to 1000 nM. The same compound registered an EC50 in assay [2] of 1000 to 10000 nM.
With `O=C(O)c1cnn(-c2cccc(C3CCCC(C(=O)N4CCCC45CCCCC5)C3)c2)c1C1CC1` (racemic) [Example 7, 1-[3-(3-{1-Azaspiro[4.5]decane-1-carbonyl}cyclohexyl)phenyl]-5-cyclopropyl-1H-pyrazole-4-carboxylic Acid], the figures for the IC50 in assay [1] and in assay [3] were 1000 to 10000 nM and 100 to 1000 nM, respectively. In assay [2], the concentration for a half-maximal effect (EC50) was 1000 to 10000 nM.
`O=C(O)c1cnn(-c2cccc(C3CCCC(n4ncc5c4CCCCC5)C3)c2)c1C1CC1` (racemic) [Example 9, 1-[3-(3-{1H,4H,5H,6H,7H,8H-cyclohepta[c]pyrazol-1-yl}cyclohexyl)phenyl]-5-cyclopropyl-1H-pyrazole-4-carboxylic Acid]: the IC50 was 1000 to 10000 nM in assay [1] and 100 to 1000 nM in assay [3]. Further, the EC50 in assay [2] was in the range of 1000 to 10000 nM.
`O=C(O)c1cnn(-c2cccc(C3CCCC(C(=O)N4CCCC4C4CCC4)C3)c2)c1C1CC1` (racemic) [Example 13, 1-{3-[3-(2-cyclobutylpyrrolidine-1-carbonyl)cyclohexyl]phenyl}-5-cyclopropyl-1H-pyrazole-4-carboxylic Acid]: the IC50 lay in the range of 100 to 1000 nM in assay [1] and 10 to 100 nM in assay [3]. The compound further showed an EC50 in assay [2] of 1000 to 10000 nM.
On to `CC1CCc2cnn([C@@H]3CCC[C@H](c4cccc(-n5ncc(C(=O)O)c5C5CC5)c4)C3)c21` (mixture of isomers) [Example 14, 5-Cyclopropyl-1-{3-[(cis)-3-(6-methyl-5,6-dihydro-4H-cyclopentapyrazol-1-yl)-cyclohexyl]-phenyl}-1H-pyrazole-4-carboxylic Acid], for which the IC50 in assay [1] is 1000 to 10000 nM; in assay [3] it was 100 to 1000 nM. In addition, the EC50 in assay [2] lay in the range of 1000 to 10000 nM.

For orientation: IC50 means the point on the concentration scale where inhibition reaches its midpoint. Low values mean greater potency in that assay, high ones weaker potency in that assay. A word on the EC50: it is the concentration that produces a half-maximal response. High values mean weaker potency, low ones greater potency.

The record behind these values is US10351530B2, “Arylcyclohexyl pyrazoles as NRF2 regulators” (GlaxoSmithKline Intellectual Property Development Limited, priority 2015, dated 2019).
